According to ChEMBL document CHEMBL1201862, “PubChem BioAssay data set” (2004):
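Tested at 5 concentrations; 48 h exposure; 96-well plates; endpoints linearly interpolated, else capped at highest concentration. The concentration for 50% growth inhibition is given as GI50.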 Activity calls are given as the source filed them. Cut-off read from the data, not from the text of the source: active = GI50 up to about 1.1 µM and inactive = higher.

Legend:
Experiment in all cases: NCI tumour cell line growth inhibition, 48 h
DLD-1 = test system: DLD-1
DMS-114 = test system: DMS-114
KM-20L2 = test system: KM-20L2
M19-MEL = test system: M19-MEL
RXF 631 = test system: RXF 631
SNB-78 = test system: SNB-78
XF498 = test system: XF498
DMS-273 = test system: DMS-273
HOP-18 = test system: HOP-18

Measured: GI50

O=C(N/C(=C\c1cc(Cl)ccc1Cl)c1nc2c(O)nc(S)nc2[nH]1)c1ccccc1
inactive: DLD-1 15.2 µM | DMS-114 25.2 µM | KM-20L2 41.4 µM | M19-MEL 27 µM | RXF 631 20.4 µM | SNB-78 55.3 µM | XF498 > 48.6 µM

Cc1cc(N(CCC#N)CCC#N)ccc1/C=C1N=C(/C=C\c2ccccc2)OC\1=O
inactive: DLD-1 > 100 µM | DMS-114 > 100 µM | DMS-273 > 100 µM | HOP-18 > 100 µM | KM-20L2 > 100 µM | M19-MEL > 100 µM | SNB-78 > 100 µM | XF498 > 100 µM

C/C(=N/NC(N)=S)c1ccc2ccccc2c1
inactive: DLD-1 21.2 µM | DMS-114 17.9 µM | DMS-273 24.9 µM | KM-20L2 23.7 µM | M19-MEL 9.79 µM | SNB-78 45.5 µM | XF498 82.2 µM

O=C1CSC(/C(=C\c2ccc(Cl)cc2)c2nc3ccccc3[nH]2)=N1
inactive: DLD-1 16.3 µM | DMS-273 21 µM | KM-20L2 31 µM | M19-MEL 15.2 µM | SNB-78 41.3 µM | XF498 1.36 µM

Cc1ccc(NCCO)cc1
inactive: DLD-1 > 100 µM | DMS-114 61.7 µM | KM-20L2 > 100 µM | SNB-78 > 100 µM | XF498 > 100 µM

O=C(Cc1nc2ccc([N+](=O)[O-])cc2nc1O)C(=O)Nc1ccccc1[N+](=O)[O-]
inactive: DLD-1 > 100 µM | DMS-114 39.5 µM | DMS-273 > 100 µM | KM-20L2 87.3 µM | M19-MEL > 100 µM

O=C(Nc1ccc(Sc2ccc(/N=N/c3c(O)c(S(=O)(=O)O)cc4cc(S(=O)(=O)O)ccc34)cc2)cc1)c1ccc(/N=N/c2c(O)c(S(=O)(=O)O)cc3cc(S(=O)(=O)O)ccc23)cc1
inactive: DLD-1 51.1 µM | DMS-114 5.42 µM | DMS-273 15.1 µM | HOP-18 23 µM | KM-20L2 63.5 µM | M19-MEL 19.5 µM | SNB-78 25.8 µM | XF498 36.4 µM

O=C1CCC2(c3ccccc3)Nc3ccc(Cl)cc3N12 (configuration not stated)
inactive: DLD-1 > 100 µM | DMS-114 63.5 µM | KM-20L2 > 100 µM | M19-MEL > 100 µM | RXF 631 > 100 µM | SNB-78 > 100 µM | XF498 > 100 µM

COc1cccc(NC(=O)/C(CC(=O)CC(c2ccccc2)c2c(O)c3ccccc3oc2=O)=N\NC(C)(C)C)c1OC (configuration not stated)
inactive: DLD-1 40.6 µM | DMS-114 22.8 µM | KM-20L2 51.4 µM | M19-MEL > 100 µM | SNB-78 > 100 µM

Cc1ccc(NC(=O)CSc2nnc(Cc3ccccc3)o2)c(C)c1
inactive: DMS-114 > 100 µM | DMS-273 > 100 µM | HOP-18 > 100 µM | KM-20L2 > 100 µM | M19-MEL > 100 µM | SNB-78 > 100 µM | XF498 > 100 µM

Oc1ccc(C2Oc3cc(O)cc4c3C2c2cc(O)cc3c2C(c2cc(O)cc5c2C4C(c2ccc(O)cc2)O5)C(c2ccc(O)cc2)O3)cc1 (configuration not stated)
inactive: DLD-1 > 25 µM | DMS-114 7.11 µM | DMS-273 8.07 µM | KM-20L2 13.2 µM | M19-MEL 10.4 µM | XF498 5.51 µM

CCOC(=O)/C=C1\Nc2ccccc2C(c2ccccc2)=NC1OC(C)=O (configuration not stated)
inactive: DLD-1 > 100 µM | DMS-114 > 100 µM | DMS-273 > 100 µM | M19-MEL > 100 µM | SNB-78 > 100 µM

c1ccc2c(c1)nnn1c3cnccc3nc21
inactive: DLD-1 27.5 µM | DMS-114 20.2 µM | DMS-273 15.9 µM | HOP-18 53.5 µM | KM-20L2 53.1 µM | M19-MEL 65.9 µM | SNB-78 25.5 µM

C=C(C)C(=O)OC1CCC2(C)C(CCC3C2CCC2(C)C(c4ccc(=O)oc4)CC4OC432)C1 (configuration not stated)
inactive: DLD-1 2.18 µM | DMS-114 2.43 µM | DMS-273 3.31 µM | HOP-18 13.3 µM | KM-20L2 6.92 µM | M19-MEL 3.91 µM | SNB-78 5.47 µM | XF498 5.15 µM

COc1ccc(-c2cc3[nH]nc(N)c3c(=O)o2)cc1
inactive: DLD-1 > 100 µM | DMS-114 72.4 µM | DMS-273 > 100 µM | HOP-18 > 100 µM | KM-20L2 > 100 µM | SNB-78 > 100 µM | XF498 > 100 µM

Cc1cc(Cl)ccc1NC(=O)CC1SC(NC(=O)c2ccccc2Cl)=NC1=O (configuration not stated)
inactive: DLD-1 19.1 µM | DMS-114 20.4 µM | DMS-273 18.9 µM | KM-20L2 28.6 µM | M19-MEL 19.2 µM | SNB-78 21.6 µM | XF498 14.8 µM

C=CCCCCCCCCC(=O)O [UNDECYLENIC ACID]
inactive: DLD-1 76.2 µM | DMS-114 135 µM | DMS-273 127 µM | HOP-18 125 µM | KM-20L2 114 µM | M19-MEL 149 µM | SNB-78 106 µM | XF498 17.1 µM

CCc1cccc(C(C)C)c1N1C(=O)C(=O)C(c2nc3ccccc3s2)C(=O)C1=O
inactive: DLD-1 20.5 µM | DMS-114 29.6 µM | DMS-273 > 45.3 µM | HOP-18 > 50 µM | KM-20L2 48.4 µM | M19-MEL 39.1 µM | SNB-78 > 50 µM | XF498 > 50 µM

COc1ccc(/C(C#N)=C2/O/C(=N/N)C(c3ccc(OC)c(OC)c3)C2=O)cc1OC (configuration not stated)
inactive: DLD-1 > 100 µM | DMS-273 > 100 µM | KM-20L2 > 100 µM | M19-MEL > 100 µM | SNB-78 > 100 µM | XF498 > 100 µM
